For data set [1], the target named is T1, recombinant NirK protein (MRA2164) (Mycobacterium tuberculosis, UniProt A5U4H6).
T1 construct: gene yfiH
Kind of data set: biochemical. Conditions: read-out: % inhibition at 5 mM.

Data set [2] addresses T1, recombinant NirK protein (MRA2164).
For data set [3], the system named is O=NO. Nature of the data set: purified protein. Conditions: pH 7.0; 37.0 °C.

T1 sequence (A5U4H6 entry or part of it): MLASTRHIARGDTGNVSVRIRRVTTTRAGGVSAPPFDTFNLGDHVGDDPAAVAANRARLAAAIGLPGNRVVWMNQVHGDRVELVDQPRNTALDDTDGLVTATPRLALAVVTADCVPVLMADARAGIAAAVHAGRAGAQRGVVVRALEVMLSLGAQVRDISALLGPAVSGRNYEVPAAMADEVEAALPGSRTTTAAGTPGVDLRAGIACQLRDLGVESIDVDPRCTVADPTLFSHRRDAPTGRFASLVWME

`NC(=O)C1=CN([C@@H]2O[C@H](COP(=O)(O)OP(=O)(O)OC[C@H]3O[C@@H](n4cnc5c(N)ncnc54)[C@H](O)[C@@H]3O)[C@@H](O)[C@H]2O)C=CC1` [NADH]: the inhibition (commonly the change of the read-out against control, counted positive when it falls) at 5000 µM in data set [1] came to 92.3%. `[N-]=[N+]=[N-]` [azide]: the % inhibition (usually the share of the control response that was lost under treatment) at 5 mM in data set [2] is recorded as 95.16%. On the same count and under the same terms, the result for `O=[N+]([O-])O` [nitrate] reads 47.40%. As for “recombinant NirK protein (MRA2164) (Mycobacterium tuberculosis H37Ra)”, the Km (in general, the concentration of substrate that gives half-maximal velocity) in data set [3] amounted to 17.16 mM.

The values are drawn from article PMC8494734 (Scientific Reports, 2021).
